From BindingDB's records for doi:10.1016/j.bmcl.2021.128058 (Hibercell, 2021)

Test: Inhibition of eIF2alpha (unknown origin) assessed as eIF2alpha phosphorylation by TR-FRET assay

IC50	Compound
3340 nM	CO[C@@H](C(=O)Nc1ccc(-c2cnc(N)c(C(=O)NC(C)C)c2)c(C)c1)c1ccccc1
2220 nM	Cc1cc(NC(=O)[C@H](O)c2cc(F)cc(F)c2)ccc1-c1cnc(N)c(C(=O)N(C)C)c1
313 nM	CC(C)NC(=O)c1cc(-c2ccc(NC(=O)[C@H](O)c3cc(F)cc(F)c3)cc2)cnc1N
58 nM	CNC(=O)c1cc(-c2ccc(NC(=O)[C@H](O)c3cc(F)cc(F)c3)cc2C)cnc1N
72 nM	CC(C)NC(=O)c1cc(-c2ccc(NC(=O)[C@H](O)c3cc(F)cc(F)c3)cc2F)cnc1N
54 nM	Cc1cccc([C@@H](O)C(=O)Nc2ccc(-c3cnc(N)c(C(=O)NC(C)C)c3)c(C)c2)c1
> 10000 nM	Cc1cc(NC(=O)[C@H](O)c2cc(F)cc(F)c2)ccc1-c1ccc(N)nc1
2130 nM	Cc1cc(NC(=O)[C@](C)(O)c2ccccc2)ccc1-c1cnc(N)c(C(=O)NC(C)C)c1
27 nM	Cc1cc(NC(=O)[C@H](O)c2cc(F)cc(F)c2)ccc1-c1cnc(N)c(C(=O)NC2CC2)c1
181 nM	Cc1cc(NC(=O)[C@H](O)c2cc(F)cc(F)c2)ccc1-c1cncc(C(=O)NC(C)C)c1
33 nM	Cc1cc(NC(=O)[C@H](O)c2cc(F)cc(F)c2)ccc1-c1cnc(N)c(C(=O)NC(C)C)c1
45 nM	CCNC(=O)c1cc(-c2ccc(NC(=O)[C@H](O)c3cc(F)cc(F)c3)cc2C)cnc1N
307 nM	Cc1cc(NC(=O)Cc2ccccc2)ccc1-c1cnc(N)c(C(=O)NC(C)C)c1
40 nM	CNC(=O)c1nc(-c2ccc(NC(=O)[C@H](O)c3cc(F)cc(F)c3)cc2C)cnc1N
9 nM	CCc1cc(NC(=O)[C@H](O)c2cc(F)cc(F)c2)ccc1-c1cnc(N)c(C(=O)NC(C)C)c1
49 nM	Cc1cc(NC(=O)[C@H](O)c2cc(F)cc(F)c2)ccc1-c1cnc(N)c(C(=O)OC(C)C)c1
114 nM	Cc1cc(NC(=O)[C@H](O)c2cc(F)cc(F)c2)ccc1-c1cnc(N)c(C(=O)NC(C)(C)C)c1
366 nM	COc1cc(NC(=O)[C@H](O)c2cc(F)cc(F)c2)ccc1-c1cnc(N)c(C(=O)NC(C)C)c1
18 nM	CCc1cccc([C@@H](O)C(=O)Nc2ccc(-c3cnc(N)c(C(=O)NC(C)C)c3)c(C)c2)c1
4030 nM	CNc1ncc(-c2ccc(NC(=O)[C@H](O)c3cc(F)cc(F)c3)cc2C)cc1C(=O)NC(C)C
42 nM	Cc1cc(NC(=O)[C@H](O)c2cc(F)cc(F)c2)ccc1-c1cnc(N)c(C(=O)NC(C)C)n1
638 nM	Cc1cc(NC(=O)[C@H](O)c2cc(F)cc(F)c2)ccc1-c1cnc(C)c(C(=O)NC(C)C)c1
40 nM	Cc1cc(NC(=O)[C@H](O)c2cccc(Cl)c2)ccc1-c1cnc(N)c(C(=O)NC(C)C)c1
7650 nM	Cc1cc(NC(=O)[C@H](O)c2cc(F)cc(F)c2)ccc1-c1cc(C(=O)NC(C)C)c(N)nn1
198 nM	Cc1cc(NC(=O)[C@H](O)c2ccccc2)ccc1-c1cnc(N)c(C(=O)NC(C)C)c1
187 nM	Cc1cc(NC(=O)[C@@H](O)c2cc(F)cc(F)c2)ccc1-c1cnc(N)c(C(=O)NC(C)C)c1
23 nM	CC(C)NC(=O)c1cc(-c2ccc(NC(=O)[C@H](O)c3cc(F)cc(F)c3)cc2Cl)cnc1N
3020 nM	Cc1cc(NC(=O)[C@@](C)(O)c2ccccc2)ccc1-c1cnc(N)c(C(=O)NC(C)C)c1
2360 nM	Cc1cc(NC(=O)Nc2ccccc2)ccc1-c1cnc(N)c(C(=O)NC(C)C)c1

Compound	IC50
Cc1cc(NC(=O)Oc2ccccc2)ccc1-c1cnc(N)c(C(=O)NC(C)C)c1	> 10000 nM
